Reference: PMC8360061, “Search for the Active Ingredients from a 2‐Aminothiazole DMSO Stock Solution with Antimalarial Activity” (Chemmedchem, 2021)
Where two headings read alike, the source gives them in different places.

Key:
[1] = Decomposition study of stock solutions (HRMS, NMR); format: physicochemical; conditions: 10 mM DMSO stock at RT, after one day
Experimental: Firstly, we performed a temperature‐dependent decomposition study of compound 1 at 10 mM concentration in DMSO at room temperature (RT), +4 °C and −20 °C (SI, Section 2.3). After seven days, 64 % of the sample stored at RT had decomposed (SI, Table S1). Besides visual inspection of the colour changes of the test sample (see Table 2), the decomposition was monitored by HRMS and NMR spectroscopy. […] Furthermore, all three samples were tested for their inhibitory activity against PfIspE after the incubation period. […] This fact correlated with the degree of chemical transformation of compound 1 (Table S1). In the IspE assay, the activity of the target enzyme is coupled to the oxidation of NADH (which can be followed spectrophotometrically at 340 nm) via a cascade of the auxiliary enzymes pyruvate kinase and lactate dehydrogenase (PK/LDH).[10] Therefore, we next confirmed, whether the effects observed in the IspE assay are due to inhibition of the target enzyme or of the auxiliary enzymes. Three samples of compound 1 were tested in PK/LDH assay (Table 2).
Secondly, we analysed if spontaneous chemical transformation of compound 1 may depend on the solvent used for the preparation of its stock solutions. We incubated 10 mM stock preparations of compound 1 in DMSO, acetonitrile (ACN) and methanol (MeOH) at RT. Aliquots were taken during 16 days of incubation and tested against the enzyme PfIspE (Table 3). […] For further decomposition incubation of compound 1, only DMSO was used as solvent.
2.3 Temperature-Dependent Study
Compound 1 was dissolved in DMSO to afford 10 mM stock solution, in the scale of 3.65 mg in 1 mL. Three aliquots were prepared and one each was stored inside a light -protecting box at different temperatures: room temperature (RT), +4 °C and –20 °C. Samples were only taken to RT for the minimum time required for sampling. Samples were further d iluted with acetonitrile to 10 µM (1:1000) for HRMS analysis. For calibration, a fresh stock solution of the compound 1 was prepared shortly before the analysis. The concentration range used for the calibration was from 10 µM to 20 nM, including 10 samples with 1:1 dilutions starting from the highest concentration (Appendix I). In all of the calibration points and samples, diphenhydramine ( m/z: 256.16907 [M+H]+) was included as an internal standard at the concentration of 500 nM. The results were analysed using Thermo Xcalibur Quan Browser. Similarly, three NMR samples of compound 1 were prepared in DMSO-d6 and each stored at different temperatures; RT, +4 °C and –20 °C, (Figure S8).
Table S1. Summary of the decomposition of compound 1 at different temperatures with the corresponding enzymatic activities measured after three months.
The Percentage of Compound 1 Left After Degradation after 3 months of decomposition[b] Temperature Day 7 1 month 2 months PfIspE IC50 EcIspE IC50 PK/LDH IC50 […]
[a] [b] Errors given as formal standard error. n.d.: not determined, PK/LDH: pyruvate kinase and lactate dehydrogenase, Pf: Plasmodium falciparum, Ec: Escherichia coli.
Figure S7. The HRMS recorded for the samples submitted to the enzyme assay after 3 months of decomposition with the corresponding colour differences. […]
2.4 Solvent-Dependent Study
As in the Section 2.3, stock solutions of compound 1 were prepared in DMSO, ACN and MeOH and stored at RT for 16 days in a box protected from light . Samples were collected during this time and the enzymatic activity was analysed for them as in main text, Table […]
compound 1 for ACN or MeOH was detectible (Figures S11–12). Similarly, the old samples of compound 1 used for enzyme and cell assays were analysed with HRMS (Figure S13). Additionally, NMR sample in MeOH was prepared and measured over time while stored at RT. As a follow-up experiment, the stability of compound 1 was determined for its 10 mM stock solution in Tris-HCl (pH 7.6) with and without 5% DMSO and Cyrene™ with HRMS (Figure S16–18). […]

PfIspE = PfIspE (Plasmodium falciparum, UniProt Q8I470); test: PfIspE enzymatic assay (coupled to PK/LDH, NADH oxidation at 340 nm); format: biochemical
PfIspE, sequence (Q8I470 entry or part of it): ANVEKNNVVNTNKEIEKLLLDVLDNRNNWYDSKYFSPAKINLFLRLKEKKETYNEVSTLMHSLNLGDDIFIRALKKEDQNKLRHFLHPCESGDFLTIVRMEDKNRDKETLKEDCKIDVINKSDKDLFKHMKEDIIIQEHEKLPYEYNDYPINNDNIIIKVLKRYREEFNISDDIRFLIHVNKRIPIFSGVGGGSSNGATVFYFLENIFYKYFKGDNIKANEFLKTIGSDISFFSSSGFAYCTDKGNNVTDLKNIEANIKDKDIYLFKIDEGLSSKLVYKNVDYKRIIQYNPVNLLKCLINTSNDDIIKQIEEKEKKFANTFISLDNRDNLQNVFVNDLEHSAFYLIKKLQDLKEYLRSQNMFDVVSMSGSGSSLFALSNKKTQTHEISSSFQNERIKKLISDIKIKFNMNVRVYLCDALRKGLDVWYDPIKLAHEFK
Experimental: (§1) Firstly, we performed a temperature‐dependent decomposition study of compound 1 at 10 mM concentration in DMSO at room temperature (RT), +4 °C and −20 °C (SI, Section 2.3). […] Besides visual inspection of the colour changes of the test sample (see Table 2), the decomposition was monitored by HRMS and NMR spectroscopy. […] Furthermore, all three samples were tested for their inhibitory activity against PfIspE after the incubation period. […] In the IspE assay, the activity of the target enzyme is coupled to the oxidation of NADH (which can be followed spectrophotometrically at 340 nm) via a cascade of the auxiliary enzymes pyruvate kinase and lactate dehydrogenase (PK/LDH).[10] […] Three samples of compound 1 were tested in PK/LDH assay (Table 2).
(§2) Another approach to address this issue is to perform the IspE assay with one or several orthologues of PfIspE. […] The IspE assay setup was identical for both Pf and EcIspE orthologs except for the target enzyme used. One of the setup requirements was that the enzymatic activity of the auxiliary enzymes PK/LDH exceeded the activity of the target enzyme IspE not less than a factor of ten.[10] We investigated, if the inhibition of the auxiliary enzymes may substantially influence the IC50 values obtained from the coupled IspE assay.
(§3) 1.1 General Procedure for Enzymatic Assay
(§4) The cloning, expression and purification of Plasmodium falciparum[1] and Escherichia coli[2,3] and their subsequent assays followed the previously reported procedures .[1] In some specified cases, the tested compound was dissolved in methanol or acetonitrile for the assay .
(§5) Due to the nature of the study, some decomposition samples w ere only tested once and thus, for some formal standard error, […]
(§6) For the final purified compounds, replicates were measured and standard deviation was calculated at least from two replicates. […]
(§7) 2.) Decomposition Study Procedure
(§8) All reagents and solvents were of commercial quality and used without further purification.

EcIspE = target: T1, EcIspE (Escherichia coli, UniProt P62615); test: EcIspE enzymatic assay (coupled to PK/LDH); format: biochemical; conditions: fractions of second purification
T1 construct: made in house
T1 sequence (P62615 whole entry): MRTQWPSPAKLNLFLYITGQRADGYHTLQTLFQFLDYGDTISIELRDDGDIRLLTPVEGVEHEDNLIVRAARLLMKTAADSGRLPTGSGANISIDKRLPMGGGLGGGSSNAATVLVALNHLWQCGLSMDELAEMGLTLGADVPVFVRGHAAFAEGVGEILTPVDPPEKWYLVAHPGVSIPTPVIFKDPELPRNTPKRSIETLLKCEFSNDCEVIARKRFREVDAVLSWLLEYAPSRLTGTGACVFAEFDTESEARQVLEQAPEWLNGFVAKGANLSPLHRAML
Description: as §2, §3, §4, §5, §6, §7, §8
Low resolution mass analytics and purity controls were carried out using an Ultimate 3000-ISQ liquid-chromatography mass spectrometry (LCMS) system (Thermo Fisher […]

[2] = test system: Plasmodium falciparum drug-sensitive NF54; test: Antimalarial assay, [3H]hypoxanthine incorporation; format: cell-based; conditions: Plasmodium falciparum
Experimental: as §5
For the final purified compounds, replicates were measured and standard deviation was calculated at least from two replicates.
1.2 General Procedure for Antimalarial Assay
Plasmodium falciparum drug-sensitive NF54 (airport strain from The Netherlands, provided by F. Hoffmann-La Roche Ltd) was cultivated in a variation of the medium consisting of RPMI 1640 supplemented with 0.5% ALBUMAX® II, 25 mM Hepes, 25 mM NaHCO3 (pH 7.3), 0.36 mM hypoxanthine, and 100 μg/mL neomycin, as previously described.[4,5] Human erythrocytes served as host cells.
Cultures were maintained in an atmosphere of 3% O2, 4% CO2, and 93% N2 in humidified modular chambers at 37 °C. Compounds were dissolved in MeOH (10 mM), diluted in hypoxanthine-free culture medium and titrated in duplicates over a 64-fold range in 96 well plates. Infected erythrocytes (1.25% final hematocrit and 0.3% final parasitemia) were added into the wells. After 48 h incubation, 0.25 μCi of [3H]hypoxanthine was added per well and plates were incubated for an additional 24 h. Parasites were harvested onto glass-fiber filters and radioactivity was counted using a Betaplate liquid scintillation counter (Wallac, Zurich). Chloroquine […]
The results were recorded and expressed as a percentage of the untreated controls. Fifty percent inhibitory concentrations (IC50) were estimated by linear interpolation.[6] […]

[3] = target: PK/LDH (pyruvate kinase and lactate dehydrogenase); test: PK/LDH auxiliary enzyme assay; format: biochemical; conditions: SFC-separated compound, dissolved in methanol shortly before the assay
Experimental: as §1, §3, §4, §5, §6, §7, §8
Low resolution mass analytics and purity controls were carried out using an Ultimate 3000-ISQ liquid-chromatography mass spectrometry (LCMS) system (Thermo Fisher Scientific, Dreieich, Germany) consisting of a Dionex UltiMate pump, an autosampler, DAD detector and an ESI quadrupole mass spectrometer. NMR spectra were recorded on a Bruker AV 500 or Ascend 700 (1H, 500 MHz or 700 MHz; 13C, 126 MHz or 175 MHz; 19F, 470 MHz) spectrometer. All spectra were measured in DMSO -d6, methanol-d4, acetone-d6 or acetonitrile-d3 to which reported

[4] = fractions of second purification (DMSO, RT, five days), dissolved in ACN
[5] = fractions of second purification (DMSO, RT, five days), dissolved in MeOH

Compound | decomposition in DMSO at RT: dimerisation (HRMS, in words) [1] | IC50 (PfIspE; [4]) [µM] | IC50 (PfIspE; [5]) [µM] | IC50 (EcIspE; dissolved in ACN) [µM] | IC50 (EcIspE; dissolved in MeOH) [µM] | also measured
Cc1cc(-c2csc(Nc3ccccc3C(F)(F)F)n2)c(C)n1CC1CCCO1 (centres unmarked) [Compound 4, 4-(2,5-Dimethyl-1-((tetrahydrofuran-2-yl)methyl)-1H-pyrrol-3-yl)-N-(2-(trifluoromethyl)phenyl)thiazol-2-amine] | no dimerisation | > 1190 | 112 | > 1190 | 292 | IC50 (PfIspE; fractions of first prep. HPLC purification (DMSO, RT, 2.5 weeks), dissolved in DMSO as 1 mg/mL): > 1190 µM
CCN(CC)CCCC(C)Nc1ccnc2cc(Cl)ccc12 (centres unmarked) [Chloroquine, reference compound] | – | – | – | – | – | IC50 ([2]; NF54, read-out: PfNF54 IC50): 3.1 ± 0.8 ng/mL
C[C@H]1[C@H](OC(=O)CCC(=O)O)O[C@@H]2O[C@@]3(C)CC[C@H]4[C@H](C)CC[C@@H]1[C@@]24OO3 [artesunate, reference compound] | – | – | – | – | – | IC50 ([2]; NF54, controls of the antimalarial assay, read-out: PfNF54 IC50): 4 ± 1.7 ng/mL
CCn1c(C)cc(-c2csc(N(c3ccccc3C(F)(F)F)N(C3=NC(=C4C=C(C)[N+](CC)=C4C)CS3)c3ccccc3C(F)(F)F)n2)c1C [DP2] | – | – | – | – | – | IC50 (PfIspE; SFC-separated compound, dissolved in methanol shortly before the assay): 59 ± 4 µM; IC50 [3]: 37 ± 4 µM; IC50 ([2]; NF54, 72 h, SFC-separated compound, dissolved in methanol shortly before the assay, 72 hours, highest concentration tested 20 μM, read-out: PfNF54 IC50): 2.1 ± 0.2 µM
CCn1c(C)cc(-c2csc(Nc3ccccc3OC)n2)c1C [Compound 2, 4-(1-Ethyl-2,5-dimethyl-1H-pyrrol-3-yl)-N-(2-methoxyphenyl)thiazol-2-amine] | dimerising mainly into the predicted N−N dimers | > 1530 | > 1530 | > 1530 | > 1530 | IC50 (PfIspE; first screening, from a single measurement, not reproducible later): 191 µM; IC50 (PfIspE; fresh batch, freshly prepared stock solution): > 500 µM
C=CCn1c(C)cc(-c2csc(Nc3ccccc3C(C)C)n2)c1C [Compound 3, 4-(1-Allyl-2,5-dimethyl-1H-pyrrol-3-yl)-N-(2-isopropylphenyl)thiazol-2-amine] | dimerising mainly into the predicted N−N dimers | > 1420 | > 1420 | > 1420 | > 1420 | –
